Reference: US20160279263A1, “DRUG DELIVERY COMPOSITIONS AND METHODS TARGETING P-GLYCOPROTEIN” (CORNELL UNIVERSITY, priority 2012, published 2016)

Molecular target: T1, P-gp (Homo sapiens, UniProt P08183)
T1 construct: expressed in transfected cells; host or cells: MDA-435/LCC6 MDR cells, with MDA-435/LCC6 WT as the P-gp-negative comparison
Experiment: FACS accumulation/efflux in MDA-435/LCC6 MDR cells compared with WT cells
Type: cell-based
Text: Before tests were initiated, P-gp expression in both MDR and WT cells was confirmed by Western blot, which confirmed the expression of P-gp in the MDR cells and the lack of expression in WT cells. The protein band in the MDR cells was visible around the molecular weight of P-gp, 170 kDa, which correlates to the reported molecular weight of the protein.
No differences in P-gp function were observed. […] Statistics represent the significance differences in WT/MDR accumulation ratio at a p-value of <0.01.

T1 sequence (P08183 whole entry): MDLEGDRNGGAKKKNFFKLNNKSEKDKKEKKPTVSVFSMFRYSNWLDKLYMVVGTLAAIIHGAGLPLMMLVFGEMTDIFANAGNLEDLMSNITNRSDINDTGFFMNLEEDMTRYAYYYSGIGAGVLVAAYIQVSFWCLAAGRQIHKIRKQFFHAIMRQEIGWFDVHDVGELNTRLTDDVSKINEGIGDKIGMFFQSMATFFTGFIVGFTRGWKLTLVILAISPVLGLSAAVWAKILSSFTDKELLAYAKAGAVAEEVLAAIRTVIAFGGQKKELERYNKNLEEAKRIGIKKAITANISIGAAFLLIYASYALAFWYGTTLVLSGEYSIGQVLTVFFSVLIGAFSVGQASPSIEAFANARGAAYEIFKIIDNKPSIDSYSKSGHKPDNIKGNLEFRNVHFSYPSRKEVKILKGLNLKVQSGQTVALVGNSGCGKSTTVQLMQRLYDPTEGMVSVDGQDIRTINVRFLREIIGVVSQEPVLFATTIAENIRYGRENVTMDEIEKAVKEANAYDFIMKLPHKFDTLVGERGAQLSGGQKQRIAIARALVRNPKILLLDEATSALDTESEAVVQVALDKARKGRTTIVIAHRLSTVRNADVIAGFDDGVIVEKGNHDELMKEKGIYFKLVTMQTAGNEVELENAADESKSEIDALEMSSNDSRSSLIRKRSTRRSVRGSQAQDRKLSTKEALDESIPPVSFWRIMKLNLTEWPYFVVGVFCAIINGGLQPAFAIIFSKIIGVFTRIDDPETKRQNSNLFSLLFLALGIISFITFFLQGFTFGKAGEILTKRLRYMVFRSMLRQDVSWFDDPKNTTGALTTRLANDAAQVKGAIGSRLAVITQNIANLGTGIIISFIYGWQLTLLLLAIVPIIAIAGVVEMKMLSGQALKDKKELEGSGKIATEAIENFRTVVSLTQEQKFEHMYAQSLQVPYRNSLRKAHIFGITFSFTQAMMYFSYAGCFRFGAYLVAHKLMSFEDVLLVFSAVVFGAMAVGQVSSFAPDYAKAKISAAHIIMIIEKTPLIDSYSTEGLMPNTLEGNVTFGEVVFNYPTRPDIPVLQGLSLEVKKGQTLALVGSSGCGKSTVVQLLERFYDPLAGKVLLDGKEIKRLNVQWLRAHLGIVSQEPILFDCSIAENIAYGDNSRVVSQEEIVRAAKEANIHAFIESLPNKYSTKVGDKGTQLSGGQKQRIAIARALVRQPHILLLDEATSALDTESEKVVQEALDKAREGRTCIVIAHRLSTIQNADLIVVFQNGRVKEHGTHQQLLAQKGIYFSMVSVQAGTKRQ

accumulation in MDR cells at 4° C. (4° C. relative to 37° C.): increase
Substance: Rhodamine 123 [free Rho123]
WT to MDR accumulation ratio with verapamil (5, 25, 50, 75 and 100 μM verapamil, mode fluorescence): increase in accumulation ratio with increasing verapamil concentration
